Here are results for eight molecules from patent US8173133B2, “Acyl pseudodipeptides which carry a functionalized auxiliary arm” (OM Pharma, priority 1999, dated 2012).

One assay relates to bone marrow stem cells. Kind of assay: bone marrow stem cell proliferation (XTT). In kind it is cell-based, C57/BL6 mice. The settings on record: for Max amplitude: 7 days, XTT 492 nm; for Min amplitude: blank ± 3× standard deviation; for Max concentration: concentration at maximum amplitude; for EC50 conc: concentration corresponding to 50% of maximum amplitude; for Min concentration: lowest concentration inducing a significant proliferation. From the text:
6-week old male C57/BL6 mice are killed by CO2 inhalation. The hip, femur, tibia and hind leg bones are removed. The marrow is extracted from the bone lumen by injecting Dulbecco's Modified Eagle Medium (DH medium) from the end portions which had been excised. The stem cells are washed and suspended again in DH medium supplemented with 20% foetal calf serum (FCS) The cell concentration is adjusted to 500000 cells/ml.
Products previously dissolved in DH medium supplemented with 20% FCS, amino acids and antibiotics are serially diluted directly into a microtiter plate. The products are tested in triplicate and each microtiter plate includes a negative control containing plain medium. The final volume in each well is 100 μl.
100 μl of the cell suspension are added to diluted solutions of products and the cells are incubated for 7 days in an incubator at 37° C., under 8% CO2 and a moisture saturated atmosphere. Cell proliferation is determined by measuring the […] of a chromogenic substrate XTT (2,3-bis[2-methoxy-4-nitro-5-sulphophenyl]-2H-tetrazolium-5-carboxanilide) in mitochondria of viable cells.
At the end of the incubation period, 50 μl of the XTT substrate solution (1 mg/ml XTT+0.008 mg/ml phenazine methosulfate) are added to each well. After an 8 hour incubation period at 37° C. under 8% CO2 in a moisture saturated incubator, the microtiter plates are read with a spectrophotometer at 492 nm against a reference sample at 690 nm.
Results are expressed as mean value±standard deviation and plotted as a dose versus response curve. Values for a negative control composed of DH medium (mean±standard deviation) are also graphically shown.
From this dose versus response curve, 3 curve variables are computed:
Max: maximum curve amplitude and corresponding concentration
EC50: concentration corresponding to 50% of maximum amplitude
Min: lowest concentration inducing a significant proliferation corresponding to the blank±3× standard deviation value
Concentration values corresponding to EC50 and Min are determined from line segments joining different points on the curve.
If the curve has no plateau phase but an ascending configuration for the highest concentration being tested, a “>” sign is shown before Max and EC50 values.
Background: Formazan colour is commonly taken as a measure of viable cells.

In assay [1] the test system is human peripheral blood mononuclear cells. Briefly: α TNF production by human peripheral blood mononuclear cells. The settings on record: for α TNF produced: 18 hours. The format is cell-based. An outline of the steps:
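Ficoll-isolated PBMC from 6 healthy donors (2×10^6 viable cells/ml, RPMI-1640, 10% FCS) exposed in triplicate for 18 h at 37 °C, 5% CO2 to compounds diluted 100-, 10- or 1-fold. Secreted TNF-α measured by chemiluminescent ELISA on 4-fold diluted supernatants against a 0.7–7000 pg/ml standard curve; values in pg/ml.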

Assay [2] shares this test system. Briefly: inhibition of E. coli LPS-induced α TNF production in human peripheral blood mononuclear cells. In kind it is cell-based. The settings on record: product 10 μg/ml; for 50% inhibition LPS: LPS concentration at which α TNF production is 50% of control; for max. Inhibition LPS: LPS concentration corresponding to maximum inhibition. An outline of the steps:
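PBMC from 6 donors (2×10^6 cells/ml, RPMI/10% FCS) were preincubated 1 h with product (10 μg/ml solution), then 18 h at 37 °C with 10-fold E. coli LPS dilutions (1–0.00001 μg/ml). Secreted TNFα by chemiluminescent ELISA; value is the LPS concentration at 50% inhibition by linear interpolation, plus maximum inhibition.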

SMILES strings stand for the structures. Converted amounts (≈) assume the structure as drawn. Bounds are passed on as bounds.

In the assay on bone marrow stem cells, `CCCCCCCCCCCC(=O)O[C@H](CCCCCCCCCCC)CC(=O)N[C@H](CC(=O)N[C@@H](CCCCN)C(=O)O)C(=O)NCCC[C@H](CO)NC(=O)C[C@H](O)CCCCCCCCCCC` [OM-197-Lys] came in with a Max amplitude of 1.56 O.D, a Min amplitude of less than 0.86 O.D, a Max concentration of 25 µg/mL and an EC50 conc of 3.3 µg/mL (≈ 3.31 µM). Further, in the assay on bone marrow stem cells, the Min concentration is less than 0.39 µg/mL. For the same molecule, in assay [1] (product 1 μg/ml), the “α TNF produced” value worked out at 284 pg/mL. Also, the “α TNF produced” value in assay [1] (product 10 μg/ml) is 164 pg/mL. The “α TNF produced” value in assay [1] (product 100 μg/ml) was determined as 20 pg/mL. For the same molecule, in assay [2], the “max. Inhibition” value was determined as 100%, the “50% inhibition LPS” value is 0.70 µg/mL and the “max. Inhibition LPS” value came to 0.0055 µg/mL.
In the assay with bone marrow stem cells, `CCCCCCCCCCCC(=O)O[C@H](CCCCCCCCCCC)CC(=O)N[C@@H](CCOP(=O)(O)O)C(=O)NCCC[C@H](COC(=O)CCCCCO)NC(=O)C[C@H](O)CCCCCCCCCCC` [OM-197-MP-AC (S, R), (3S,9R)-3-[(R)-3-dodecanoyloxytetradecanoylamino]-4-oxo-5-aza-9-[(R)-3-hydroxytetradecanoylamino]-1,10-diol 1-dihydrogenphosphate 10-(6-hydroxyhexanoate)] displayed a Max amplitude of 1.22 O.D, a Min amplitude of 0.80 O.D, a Max concentration of 6.25 µg/mL and an EC50 conc of 2.62 µg/mL (≈ 2.5 µM). Besides, in the assay on bone marrow stem cells, the Min concentration was found to be 1.17 µg/mL. The “α TNF produced” value in assay [1] (product 1 μg/ml) was 488 pg/mL. Moreover, in assay [1] (product 10 μg/ml), the “α TNF produced” value worked out at 124 pg/mL. Besides, in assay [1] (product 100 μg/ml), the “α TNF produced” value was determined as 80 pg/mL. Besides, in assay [2], the “max. Inhibition” value is 100%, the “50% inhibition LPS” value was greater than 1 µg/mL and the “max. Inhibition LPS” value was determined as 0.00002 µg/mL.
Regarding `CCCCCCCCCCCC(=O)O[C@H](CCCCCCCCCCC)CC(=O)N[C@H](CC(=O)NCCCN)C(=O)NCCC[C@H](CO)NC(=O)C[C@H](O)CCCCCCCCCCC` [OM-197-AP, N—[(R)-3-dodecanoyloxytetradecanoyl]-D-aspartic acid, α-N-{(4R)-5-hydroxy-4-[(R)-3-hydroxy-tetradecanoylamino]pentyl}-amide β-N-(3-aminopropyl)amide], in the assay on bone marrow stem cells, the Max amplitude was found to be 1.49 O.D, the Min amplitude came to 0.80 O.D, the Max concentration amounted to 25 µg/mL and the EC50 conc is 2.2 µg/mL (≈ 2.38 µM). This molecule gave a Min concentration in the assay on bone marrow stem cells of 0.41 µg/mL. Further, in assay [1] (product 1 μg/ml), the “α TNF produced” value is 428 pg/mL. Also, the “α TNF produced” value in assay [1] (product 10 μg/ml) was found to be 116 pg/mL. Besides, in assay [1] (product 100 μg/ml), the “α TNF produced” value turned out to be 84 pg/mL. Further, in assay [2], the “max. Inhibition” value turned out to be 100%, the “50% inhibition LPS” value was greater than 1 µg/mL and the “max. Inhibition LPS” value stood at 0.016 µg/mL.
For `CCCCCCCCCCCC(=O)O[C@H](CCCCCCCCCCC)CC(=O)N[C@H](CC(=O)O)C(=O)NCCC[C@H](COC(=O)CCCCCNC(=O)CCC(=O)O)NC(=O)C[C@H](O)CCCCCCCCCCC` [OM-197-MC-AC-Succ, N—[(R)-3-dodecanoyloxytetradecanoyl]-D-aspartic acid, α-N-{(4R)-5-(6-succinylamidohexanoxyloxy)-4[(R)-3-hydroxy-tetradecanoylamino]pentyl}amide], in the assay with bone marrow stem cells, the Max amplitude is greater than 1.65 O.D, the Min amplitude turned out to be 0.80 O.D, the Max concentration is greater than 100 µg/mL and the EC50 conc came to 33.7 µg/mL (≈ 31.2 µM). In addition, the Min concentration with bone marrow stem cells was found to be 2.04 µg/mL. In assay [1] (product 1 μg/ml), the “α TNF produced” value was 0 pg/mL. The “α TNF produced” value in assay [1] (product 10 μg/ml) was 32 pg/mL. Further, in assay [1] (product 100 μg/ml), the “α TNF produced” value stood at 40 pg/mL. Further, in assay [2], the “max. Inhibition” value is 100%, the “50% inhibition LPS” value was greater than 1 µg/mL and the “max. Inhibition LPS” value was determined as 0.044 µg/mL.
In the assay with bone marrow stem cells, `CCCCCCCCCCCC(=O)O[C@H](CCCCCCCCCCC)CC(=O)N[C@H](CC(=O)N[C@@H](CC(=O)O)C(=O)O)C(=O)NCCC[C@H](COC(=O)CCCCCN)NC(=O)C[C@H](O)CCCCCCCCCCC` [OM-197-Asp-AC, N—[(R)-3-dodecanoyloxytetradecanoyl]-D-aspartic acid, α-N-{(4R)-5-(6-aminohexanoyloxy)-4-[(R)-3-hydroxytetradecanoyl-amino]-pentyl}amide β-N-[(1S)-1,2-dicarboxyethyl]Amide] returned a Max amplitude of 1.33 O.D, a Min amplitude of 0.80 O.D, a Max concentration of 50 µg/mL and an EC50 conc of 2.8 µg/mL (≈ 2.55 µM). Further, the Min concentration in the assay on bone marrow stem cells was determined as 1.27 µg/mL. The “α TNF produced” value in assay [1] (product 1 μg/ml) was determined as 20 pg/mL. For the same molecule, the “α TNF produced” value in assay [1] (product 10 μg/ml) stood at 172 pg/mL. In addition, in assay [1] (product 100 μg/ml), the “α TNF produced” value is 132 pg/mL. In addition, in assay [2], the “max. Inhibition” value is 100%, the “50% inhibition LPS” value worked out at 0.29 µg/mL and the “max. Inhibition LPS” value amounted to 0.0058 µg/mL.
Take `CCCCCCCCCCCC(=O)O[C@H](CCCCCCCCCCC)CC(=O)NC(CCOP(=O)(O)O)C(=O)NCCCC(COC(=O)CCCCC(O)CO)NC(=O)C[C@H](O)CCCCCCCCCCC` (stereo partly drawn) [OM-197-FV6, 3-[(R)-dodecanoyloxytetradecanoylamino]-4oxo-5-aza-9-[(R)-3-hydroxytetradecanoylamino]-decan-1,10-diol 1-dihydrogenphate 10-(6,7-dihydroxyheptanoate)]: in the assay with bone marrow stem cells, the Max amplitude was 1.52 O.D, the Min amplitude came to 0.80 O.D, the Max concentration amounted to 50 µg/mL and the EC50 conc came to 5.7 µg/mL (≈ 5.29 µM). For the same molecule, in the assay with bone marrow stem cells, the Min concentration came to 1.60 µg/mL. For the same molecule, the “α TNF produced” value in assay [1] (product 1 μg/ml) was 0 pg/mL. Moreover, the “α TNF produced” value in assay [1] (product 10 μg/ml) was found to be 104 pg/mL. For the same molecule, the “α TNF produced” value in assay [1] (product 100 μg/ml) worked out at 88 pg/mL. For the same molecule, in assay [2], the “max. Inhibition” value was found to be 100%, the “50% inhibition LPS” value was greater than 1 µg/mL and the “max. Inhibition LPS” value worked out at 0.014 µg/mL.
With `CCCCCCCCCCCC(=O)O[C@H](CCCCCCCCCCC)CC(=O)N[C@H](CC(=O)O)C(=O)NCCC[C@H](COC(=O)CCCCC(O)CO)NC(=O)C[C@H](O)CCCCCCCCCCC` (stereo partly drawn) [OM-197-MC-FV5, N—[(R)-3-dodecanoyloxytetradecanoylamino]-D-aspartic acid, α-N-{(4R)-5-hydroxy-4-[(R)-3-hydroxytetra-decanoylamino]-pentyl}amide 5-O-(6,7-dihydroxyheptanoate)], in the assay with bone marrow stem cells, the Max amplitude came to 1.75 O.D, the Min amplitude amounted to 0.80 O.D, the Max concentration stood at 50 µg/mL and the EC50 conc is 32.0 µg/mL (≈ 31.6 µM). The same molecule had a Min concentration with bone marrow stem cells of 8.20 µg/mL. Further, the “α TNF produced” value in assay [1] (product 1 μg/ml) is 0 pg/mL. Besides, the “α TNF produced” value in assay [1] (product 10 μg/ml) was found to be 104 pg/mL. Besides, the “α TNF produced” value in assay [1] (product 100 μg/ml) turned out to be 116 pg/mL. Also, in assay [2], the “max. Inhibition” value is 100%, the “50% inhibition LPS” value was greater than 1 µg/mL and the “max. Inhibition LPS” value worked out at 0.016 µg/mL.
As for `CCCCCCCCCCCC(=O)O[C@H](CCCCCCCCCCC)CC(=O)N[C@H](CC(=O)O)C(=O)NCCC[C@H](COP(=O)(O)O)NC(=O)C[C@H](O)CCCCCCCCCCC` [OM-197-MC-MP, N—[(R)-3-dodecanoyloxytetradecanoyl]-D-aspartic acid, α-N-{(4R)-5-dihydroxyphosphoryloxy-4-[(R)-3-hydroxytetradecanoyl-amino]pentyl}amide], in the assay with bone marrow stem cells, the Max amplitude is on record as greater than 1.60 O.D, the Min amplitude stood at 0.80 O.D, the Max concentration is greater than 160 µg/mL and the EC50 conc is greater than 6.5 µg/mL. In the assay with bone marrow stem cells, this molecule showed a Min concentration of 0.77 µg/mL. The “concentration at which a significant α TNF production level is induced” value in assay [1] (only at this concentration) was determined as 100 µg/mL. Besides, the “α TNF produced” value in assay [1] (product 1 μg/ml) was 0 pg/mL. The “α TNF produced” value in assay [1] (product 10 μg/ml) turned out to be 0 pg/mL. Also, the “α TNF produced” value in assay [1] (product 100 μg/ml) was 72 pg/mL. In assay [2], the “max. Inhibition” value stood at 100%, the “50% inhibition LPS” value was found to be 0.19 µg/mL and the “max. Inhibition LPS” value stood at 0.001 µg/mL.
